In US20110237629A1, “AMINO ACID ESTER PRODRUGS AND THE USE THEREOF” (Bayer Schering Pharma Aktiengesellschaft, priority 2008, published 2011):
Where a name gives a salt, the structure may show the parent alone.

Legend:
[1] = Determination of the solubility (suspension shaken 24 h at room temperature, HPLC of supernatant); type: physicochemical; details: thermodynamic from solid
Procedure: The test substance is suspended in water or dilute hydrochloric acid (pH 4) or in 5% strength aqueous dextrose solution. This suspension is shaken at room temperature for 24 h. After ultracentrifugation at 224 000 g for 30 min, the supernatant is diluted with DMSO and analysed by HPLC. A two-point calibration plot of the test compound in DMSO is used for quantification.
Agilent 1100 with DAD (G1315A), quat. Pump (G1311A), autosampler CTC HTS PAL, degasser (G1322A) and column thermostat (G1316A); column: Phenomenex Gemini C18, 5 μm, 50 mm×2 mm; temperature: 40° C.; eluent A: water/phosphoric acid pH 2, eluent B: acetonitrile; flow rate: 0.7 ml/min; gradient: 0-0.5 min 85% A, 15% B; ramp 0.5-3 min 10% A, 90% B; 3-3.5 min 10% A, 90% B; ramp 3.5-4 min 85% A, 15% B; 4-5 min 85% A, 15% B.
Agilent 1100 with DAD (G1315A), quat. pump (G1311A), autosampler CTC HTS PAL, degasser (G1322A) and column thermostat (G1316A); column: VDSoptilab Kromasil 100 C18, 3.5 μm, 60 mm×2.1 mm; temperature: 30° C.; eluent A: water+5 ml of perchloric acid/liter, eluent B: acetonitrile; flow rate: 0.75 ml/min; gradient: 0-0.5 min 98% A, 2% B; ramp 0.5-4.5 min 10% A, 90% B; 4.5-6 min 10% A, 90% B; ramp 6.5-6.7 min 98% A, 2% B; 6.7-7.5 min 98% A, 2% B.
The solubilities of representative exemplary embodiments in dilute hydrochloric acid (pH 4) are shown in Table1: […]

[2] = Stability in buffer at various pH values; type: physicochemical
Procedure: 0.3 mg of the test substance is weighed into a 2 ml HPLC vial and 0.5 ml of acetonitrile or acetonitrile/DMSO (9:1) is added. The substance is dissolved by putting the sample vessel in an ultrasonic bath for about 10 seconds. Then 0.5 ml of the respective buffer solution is added, and the sample is again treated in the ultrasonic bath.
(Buffer) solutions employed:
pH 4: 1 liter of Millipore water is adjusted to pH 4.0 with 1 N hydrochloric acid;
pH 5: 0.096 mol of citric acid and 0.2 mol of sodium hydroxide ad 1 liter of water;
pH 7.4: 90.0 g of sodium chloride, 13.61 g of potassium dihydrogen phosphate and 83.35 g of 1 N sodium hydroxide solution are made up to 1 liter with water; this solution is then further diluted 1:10 with Millipore water.
pH 8: 0.013 mol of borax and 0.021 mol of hydrochloric acid ad 1 liter of water.
5 μl portions of the test solution are analyzed by HPLC for their content of unchanged test substance, and of basic mother substance of the formula (A) formed, every hour over a period of 24 hours at 37° C. The percentage areas of the appropriate peaks are used for quantification.
HPLC method for example 1:
(§1) Agilent 1100 with DAD (G1315B), binary pump (G1312A), autosampler (G1329A), column oven (G1316A), thermostat (G1330B); column: Kromasil 100 C18, 125 mm×4 mm, 5 μm; column temperature: 30° C.; eluent A: water+5 ml perchloric acid/liter, eluent B: acetonitrile; gradient: 0 min 90% A→2.0 min 70% A→18.0 min 70% A 20.0 min 10% A→21.0 min 10% A→23.0 min 90% A→26.0 min 90% A; flow rate: 2.0 ml/min;
HPLC method for example 3:
as §1, with “(G1314A),” for “(G1315B),”, “(G1330A);” for “(G1330B);”, “64%” for “70%”, “64% A→20.0” for “70% A 20.0”, “ml/min UV detection: 294 nm.” for “ml/min;”
HPLC method for example 11:
as §1, with “ml of” for “ml”, “64%” for “70%”, “64% A→20.0” for “70% A 20.0”, “ml/min; UV detection: 294 nm.” for “ml/min;”
HPLC method for example 14:
Agilent 1100 with DAD (G1315B), binary pump (G1312A), autosampler (G1329A), column oven (G1316A), thermostat (G1330B); column: Kromasil 100 C18, 250 mm×4 mm, 5 μm; column temperature: 30° C.; eluent A: water+5 ml of perchloric acid/liter, eluent B: acetonitrile; gradient: 0 min 90% A→7.0 min 52% A→18.0 min 52% A→20.0 min 10% A→21.0 min 10% A→23.0 min 90% A -4 26.0 min 90% A; flow rate: 2.0 ml/min; UV detection: 288 nm.
HPLC method for example 18:
Agilent 1100 with DAD (G1315A), binary pump (G1312A), autosampler (G1329A), column oven (G1316A), thermostat (G1330A); column: Kromasil 100 C18, 125 mm×4 mm, 5 μm; column temperature: 30° C.; eluent A: water+5 ml of perchloric acid/liter, eluent B: acetonitrile; gradient: 0 min 90% A→6.0 min 61% A→18.0 min 61% A→20.0 min 10% A→21.0 min 10% A→23.0 min 90% A→26.0 min 90% A; flow rate: 2.0 ml/min; UV detection: 294 nm.
The ratios of the peak areas (F) at the respective time points in relation to the peak areas at the starting time are shown in Table 3 for representative exemplary embodiments: […]

[3] = i.v. pharmacokinetics in Wistar rats; type: in vivo; details: male Wistar rats, i.v. bolus, first measurement point
Procedure: On the day before administration of the substance, a catheter for obtaining blood is implanted in the jugular vein of the experimental animals (male Wistar rats, body weight 200-250 g) under Isofluran® anesthesia. On the day of the experiment, a defined dose of the test substance is administered as solution into the tail vein using a Hamilton® glass syringe (bolus administration, duration of administration <10 s). Blood samples (8-12 time points) are taken through the catheter sequentially over the course of 24 h after administration of the substance. Plasma is obtained by centrifuging the samples in heparinized tubes. Acetonitrile is added to a defined plasma volume per time point to precipitate proteins. After centrifugation, test substance and, where appropriate, known cleavage products of the test substance in the supernatant are determined quantitatively using a suitable LC/MS-MS method. […] Only the active ingredient (example 8A) was detectable up to the 8-hour time point too.

For C[C@H](N)C(=O)OC[C@H](COc1ccc(-c2c(C#N)c(N)nc(SCc3coc(-c4ccc(Cl)cc4)n3)c2C#N)cc1)OC(=O)[C@H](C)N [Example 1, (2S)-3-{4-[2-Amino-6-({[2-(4-chlorophenyl)-1,3-oxazol-4-yl]methyl}sulfanyl)-3,5-dicyanopyridin-4-yl]phenoxy}propane-1,2-diyl(2S,2′S)-bis(2-aminopropanoate)dihydrochloride], the solubility at 24 h ([1]; aqueous buffer, dilute hydrochloric acid (pH 4)) was over 500 µg/mL, the solubility at 24 h ([1]; saline or isotonic, 5% strength aqueous dextrose solution) was over 500 µg/mL and the “% test substance after 4 h [F(t = 4 h) × 100/F(t = 0 h)]” value ([2]; pH 4, 37° C.) was 99%. The “% test substance after 24 h [F(t = 24 h) × 100/F(t = 0 h)]” value ([2]; pH 4, 37° C.) was 98%, the “% test substance after 4 h [F(t = 4 h) × 100/F(t = 0 h)]” value ([2]; pH 7.4, 37° C.) was 90% and the “% test substance after 24 h [F(t = 24 h) × 100/F(t = 0 h)]” value ([2]; pH 7.4, 37° C.) was 53%. For the same molecule, the “detectability of the test substance (prodrug) in plasma after i.v. administration” value [3] was “no longer detectable”.
